Several values for one entry are separate records, joined by “and”; a condition that tells them apart may be missing. Identical values can stand only once. Entries after “also recorded” stand apart in the source; their conditions may differ. Like-named read-outs stand apart in the source and are kept apart here.
Assays:
[1] = tested on: Toxoplasma gondii tachyzoites of RH strain; assay: Forty-eight-hour antiproliferative assay; format: cell-based; conditions: 48 h; for inhibition at 0.25 µM / inhibition at 1 µM: read-out: Inhibition of parasite proliferation
Protocol: NDHF cell monolayers were plated in a 24-well tissue plate containing coverslips, and after confluency was reached, cells were infected with a ratio of 5:1 parasite/host cells with freshly egressed RH strain tachyzoites for two hours. Then, cells were washed twice with phosphate-buffered saline, pH 7.4 (PBS), to remove non-invaded parasites and incubated with a complete medium for two hours more. After this time, infected cells were treated for 48 h with different concentrations of selected compounds, based on the IC50 obtained through plaque assay. At the end of the experiment, the cells were washed with PBS, stained with Bouin for 10 min, washed with 70% alcohol, and stained with solutions 2 and 3 of the Fast Panoptic kit for 60 and 10 s, respectively. Two hundred infected cells were quantified per slide using the 100× objective of a Leica DM500 optical microscope, stratifying the number of infected and non-infected cells and the amount of tachyzoite in each infected cell. The proliferation index is the ratio of the product of the total amount of tachyzoites and the percentage of infected cells by the total number of cells.

[2] = tested on: Toxoplasma gondii tachyzoites of RH strain; assay: Plaque assay (7 days) in NHDF monolayers infected with T. gondii; format: cell-based; conditions: 7 days of treatment, two independent experiments
Protocol: After NHDF reached confluency, each well was replaced with fresh medium containing one compound at a concentration of 1 µM, and then infected with 1000 newly egressed tachyzoites from RH strain [29]. Screening at 1 μM is recommended by MMV. As a control, infected cells were incubated with complete medium and 0.01% DMSO [29]. The plates were then kept in an incubator at 37 °C in a humid atmosphere with 5% CO2 for seven days. After this time, cultures were fixed with 70% ethanol and stained with crystal violet to observe the plates.
For that, 12-well plates containing a monolayer of NHDF were infected with 600 tachyzoites of the RH strain of T. gondii and treated with different concentrations for seven days. IC50s of compounds were calculated using GraphPad Prism 8.0 software.
Data were analyzed using GraphPad Prim 8.0 software. IC50 and CC50 calculations were performed by fitting the values of proliferation/viability in percentage to a non-linear curve followed by dose–response inhibition analysis through log(inhibitor) vs. normalized response.

[3] = Cytotoxicity assay (MTS, 7 days); format: cell-based, Human; conditions: human, NHDF cells, MTS, concentrations up to 10 µM, two independent experiments, read-out: Cytotoxicity against NHDF (7 Days) CC50
Protocol: (§1) For that, 96-well tissue plates containing NHDF cells were treated with different concentrations of compounds up to 10 µM for seven days. Control cells were incubated with 0.5% DMSO. At the end of the treatment, cell viability was then analyzed through the colorimetric method of MTS (Promega, Madison, WI, USA). […] Data were analyzed using GraphPad Prim 8.0 software. IC50 and CC50 calculations were performed by fitting the values of proliferation/viability in percentage to a non-linear curve followed by dose–response inhibition analysis through log(inhibitor) vs. normalized response.

NHDF cells = assay: Cytotoxicity assay (MTS, 7 days); format: cell-based, Human; conditions: for CC50: MTS, read-out: Cytotoxicity against NHDF (7 Days) CC50
Protocol: as §1

[4] = tested on: T. gondii tachyzoites (apicoplast); assay: Immunofluorescence assay of apicoplast loss (anti-CPN60); format: cell-based, Toxoplasma gondii; conditions: 1 µM, 24 h
Protocol: Anti-CPN60 (kindly provided by Dr. Boris […], University of Georgia, USA) was used to label the apicoplast luminal protein CPN60 at a dilution of 1:2000. DAPI (5 μg/mL; Sigma-Aldrich) was used to label the DNA. After labeling, the coverslips were mounted onto slides using Prolong gold (Life Technologies, Eugene, OR, USA), and samples were examined on an Invitrogen EVOS fluorescence microscope.

T. gondii tachyzoites = assay: Ultrastructural analysis through transmission electron microscopy; format: cell-based, Toxoplasma gondii; conditions: 48 h
Protocol: T-25 cm^2 flasks for cell culture with confluent monolayers of NHDF were infected with freshly egressed tachyzoite in a ratio of 10:1 parasite per cell for 2 h of interaction. The flasks were washed and fresh RPMI was added for another two hours. After this, the compounds were added and infected cells were treated for 48 h. The sample fixation and processing for microscopy were performed as previously described.

[5] = tested on: Toxoplasma gondii tachyzoites of RH strain; assay: Post-treatment recovery (washout) assay; format: cell-based; conditions: 3 days of treatment, 7 days recovery without drug; 0.001 to 1 µM tested
Protocol: NHDF monolayers in 12-well plates were infected with 5000 newly egressed tachyzoites from RH strain and then treated for 3 days with drug concentrations of 0.001 to 1 µM. After treatment, the medium with drugs was removed, and the cells were washed twice and incubated with a fresh medium without drugs for an additional 7 days to allow the remaining parasites (if still viable after treatment) to grow. The plates were then kept in an incubator at 37 °C in a humid atmosphere with 5% CO2 throughout the treatment.

[6] = concentrations up to 10 µM, two independent experiments

CCCCC(CC)CNC(=N)NC(=N)NCCCCCCNC(=N)NC(=N)NCC(CC)CCCC (stereo not shown) [Alexidine]
inhibition at 0.25 µM ([1]; Toxoplasma gondii, 0.25 µM): ~60% | IC50 ([2]; Toxoplasma gondii, NHDF, 168 h): 272 ± 38.4 nM | CC50 at 7 days [3]: 1630 nM | SI (Selectivity Index, CC50 NHDF cells/IC50 T. gondii) (NHDF cells): 6

Cc1cc(C2CCCCC2)n(O)c(=O)c1 [Ciclopirox]
IC50 ([2]; Toxoplasma gondii, NHDF, 168 h): 497 ± 18.1 nM | CC50 at 7 days [3]: 4000 nM | SI (Selectivity Index, CC50 NHDF cells/IC50 T. gondii) (NHDF cells): 8

CCC[C@@H]1C[C@@H](C(=O)N[C@@H]([C@H]2O[C@H](SC)[C@H](O)[C@@H](O)[C@H]2O)[C@H](C)Cl)N(C)C1 [Clindamycin]
Frequency of vacuoles (4 or 8 parasites) with at least one parasite presenting apicoplast loss [4]: higher than 30%

COc1cc(NS(=O)(=O)c2ccc(C)cc2)c2ncccc2c1 [DNDI1417411]
Inhibition of parasite proliferation ([1]; 1 µM): more than 60% | IC50 [2]: 485 ± 43.8 nM | CC50 (NHDF cells; [6]): 14500 nM

CC[C@H]1OC(=O)[C@H](C)[C@@H](O[C@H]2C[C@@](C)(OC)[C@@H](O)[C@H](C)O2)[C@H](C)[C@@H](O[C@@H]2O[C@H](C)C[C@H](N(C)C)[C@H]2O)[C@](C)(O)C[C@@H](C)C(=O)[C@H](C)[C@@H](O)[C@]1(C)O [Erythromycin]
IC50 [2]: 131 ± 15.8 nM | IC50 ([2]; Toxoplasma gondii, NHDF, 168 h): ≤ 200 nM | CC50 at 7 days [3]: 11900 nM | SI (Selectivity Index, CC50 NHDF cells/IC50 T. gondii) (NHDF cells): 91

CC1=C(/C=C/C(C)=C/C=C/C(C)=C/C(=O)Nc2ccc(O)cc2)C(C)(C)CCC1 [Fenretinide]
IC50 ([2]; Toxoplasma gondii, NHDF, 168 h): 918 ± 29.1 nM | CC50 at 7 days [3]: 26700 nM | SI (Selectivity Index, CC50 NHDF cells/IC50 T. gondii) (NHDF cells): 29

Oc1c(C(Nc2nc3ccccc3s2)c2ccc(OC(F)F)cc2)ccc2cccnc12 (stereo not shown) [MMV019724]
Ultrastructural alterations on tachyzoites (TEM) (T. gondii tachyzoites; 0.25 µM): affected the parasite cell division process; also recorded: induced a lytic effect in the parasite | Inhibition of parasite proliferation ([1]; 0.25 µM): more than 80% | Inhibition of parasite proliferation ([1]; 1 µM): 99% | IC50 [2]: ≤ 200 nM and 109 nM | CC50 (NHDF cells; [6]): 2500 nM

Oc1cccc(C(Nc2nccs2)c2ccc3cccnc3c2O)c1 (stereo not shown) [MMV642550]
Ultrastructural alterations on tachyzoites (TEM) (T. gondii tachyzoites; 1 µM): affected the Golgi complex (GC) (Figure 4E) and induced extensive vacuolization inside the parasite body | Inhibition of T. gondii proliferation ([1]; 0.5 µM): around 75% | IC50 [2]: 320 ± 17 nM | CC50 (NHDF cells; [6]): 6730 nM

O=S(=O)(Nc1cccc2cccnc12)c1ccccc1 [MMV1578890]
IC50 [2]: 1100 ± 0.1 nM | CC50 (NHDF cells; [6]): 10300 nM

CCc1nc(N)nc(N)c1C#CC(C)c1cc(OC)cc(-c2ccncc2)c1 (stereo not shown) [MMV1580844]
Concentrations at which monolayer lysis and plaque areas were seen after washout [5]: 0.001 to 0.01 µM | Ultrastructural alterations on tachyzoites (TEM) (T. gondii tachyzoites; 3 nM): caused parasite lysis; also recorded: disrupted the parasite division process | Inhibition of tachyzoite proliferation ([1]; 7 nM): more than 90% | Inhibition of T. gondii proliferation ([1]; concentrations close to 2 nM): approximately 50% | CC50 (NHDF cells; [6]): 11200 nM

Fc1ccc(-c2nc(-c3c[nH]c4ccc(Br)cc34)[nH]c2-c2ccc(F)cc2)cc1 [MMV1593537]
IC50 [2]: 940 ± 38.6 nM | CC50 (NHDF cells; [6]): 5660 nM

Nc1nc(Nc2ccc3nc(-c4ccc(F)cc4)cc(N)c3c2)cc(-c2ccccc2)n1 [MMV1593541]
Ultrastructural alterations on tachyzoites (TEM) (T. gondii tachyzoites; 0.5 µM): induced the formation of extensive cytoplasm vacuolization | Inhibition of T. gondii proliferation ([1]; 125 nM): more than 50% | Inhibition of parasite proliferation ([1]; 0.25 µM): around 60% | CC50 (NHDF cells; [6]): 2540 nM

Cn1cc(NC(=O)c2cc(NC(=O)c3ccc(/C=C/c4cnc5ccccc5c4)cc3)cn2C)cc1C(=O)NCCN1CCOCC1 [MMV1634391]
Frequency of vacuoles (4 or 8 parasites) with at least one parasite presenting apicoplast loss [4]: higher than 30% | CC50 (NHDF cells; ND = 100% viability up to 10 µM): > 10000 nM

Cc1nc2ccc(Oc3ccccc3)cc2c2c1CCN2CCc1ccccc1 [MMV1634399]
IC50 [2]: 920.3 ± 0.1 nM | CC50 (NHDF cells; [6]): 24100 nM

COc1ccc2sc3c(c2c1)NC(C)CNC3=O (stereo not shown) [MMV1782115]
Inhibition of parasite proliferation ([1]; 1 µM): more than 60% | IC50 [2]: ≤ 200 nM and 161 nM | CC50 (NHDF cells; [6]): 9430 nM

CCc1nc(N)nc(N)c1-c1ccc(Cl)cc1 [PYR, pyrimethamine]
Concentration that abolished parasite proliferation recovery (no plaques) [5]: > 1 µM | Concentrations at which monolayer lysis and plaque areas were seen after washout [5]: all concentrations

C=C[C@]1(C)C[C@@H](OC(=O)CS[C@@H]2C[C@H]3CC[C@@H](C2)N3C)[C@]2(C)[C@H](C)CC[C@]3(CCC(=O)[C@H]32)[C@@H](C)[C@@H]1O [Retapamulin]
Inhibition of parasite proliferation ([1]; 1 µM): more than 50% | inhibition at 1 µM ([1]; Toxoplasma gondii, 1 µM): > 60% | Frequency of vacuoles (4 or 8 parasites) with at least one parasite presenting apicoplast loss [4]: higher than 30% | IC50 [2]: < 100 nM | CC50 at 7 days [3]: 9980 nM | SI (Selectivity Index, CC50 NHDF cells/IC50 T. gondii) (NHDF cells): 270

COc1cc(C)c2c(Oc3cccc(C(F)(F)F)c3)c(OC)cc(NC(C)CCCN)c2n1 (stereo not shown) [Tafenoquine]
IC50 ([2]; Toxoplasma gondii, NHDF, 168 h): 896.9 ± 0.1 nM | CC50 at 7 days [3]: 16300 nM | SI (Selectivity Index, CC50 NHDF cells/IC50 T. gondii) (NHDF cells): 18

NC(=S)N/N=C/c1ncccc1N [Triapine]
inhibition at 1 µM ([1]; Toxoplasma gondii, 1 µM): > 60% | IC50 ([2]; Toxoplasma gondii, NHDF, 168 h): 717.7 ± 0.1 nM | CC50 at 7 days [3]: 2800 nM | SI (Selectivity Index, CC50 NHDF cells/IC50 T. gondii) (NHDF cells): 4

COc1cc(NCc2ccc3nc(N)nc(N)c3c2C)cc(OC)c1OC [Trimetrexate]
Concentrations at which monolayer lysis and plaque areas were seen after washout [5]: 0.001 to 0.1 µM | inhibition at 0.015 µM ([1]; Toxoplasma gondii, 15 nM, read-out: Inhibition of tachyzoite proliferation): > 90% | Inhibition of T. gondii proliferation ([1]; concentrations close to 2 nM): approximately 50% | CC50 at 7 days [3]: 11900 nM | SI (Selectivity Index, CC50 NHDF cells/IC50 T. gondii) (NHDF cells): 3046

O=C(/C=C\n1cnc(-c2cc(C(F)(F)F)cc(C(F)(F)F)c2)n1)NNc1ccccn1 [Verdinexor]
Ultrastructural alterations on tachyzoites (TEM) (T. gondii tachyzoites; 0.25 µM): caused a drastic effect on the division of the parasite; also recorded: caused extensive vacuolization; also recorded: induced mitochondrial alterations | inhibition at 0.25 µM ([1]; Toxoplasma gondii, 0.25 µM): > 80% | inhibition at 1 µM ([1]; Toxoplasma gondii, 1 µM): 99% | IC50 [2]: 70 ± 24.4 nM | IC50 ([2]; listed as verdinexor): ≤ 200 nM | CC50 at 7 days [3]: 2860 nM

— paper PMC10747034 (Tropical Medicine and Infectious Disease, 2023)
